Measured values from ChEMBL document CHEMBL3272239, “Psychotropic agents. 3. 4-(4-Substituted piperidinyl)-1-(4-fluorophenyl)-1-butanones with potent neuroleptic activity” (J Med Chem, 1978).

How the values were obtained:
Mus musculus [1] = test: Neuroleptic activity in po dosed STD-ddY mouse assessed as inhibition of spontaneous motor activity by measuring number of revolution of cage for 5 mins; type: functional
Mus musculus [2] = test: Neuroleptic activity in po dosed STD-ddY mouse assessed as protection against methamphetamine-induced toxicity administered 1 hr before methamphetamine challenge measured after 24 hrs; type: functional
Rattus norvegicus [3] = test: Inhibition of methamphetamine-induced stereotyped behavior in po dosed albino Wistar rat administered 2 hrs before methamphetamine challenge measured up to 3 hrs; type: functional
Rattus norvegicus [4] = test: Toxicity in po dosed albino Wistar rat assessed as induction of catalepsy after 8 hrs; type: organism-based; settings: in vivo
[5] = Acute toxicity in po dosed STD-ddY mouse assessed as mortality up to 7 days; type: organism-based; settings: in vivo
Rattus norvegicus [6] = test: Ratio of ED50 for po dosed albino Wistar rat assessed as induction of catalepsy to ED50 for apomorphine-induced stereotyped behavior in po dosed albino Wistar rat
Rattus norvegicus [7] = test: Inhibition of apomorphine-induced stereotyped behavior in po dosed albino Wistar rat administered 2 hrs before apomorphine challenge measured after 20 mins; type: functional
Rattus norvegicus [8] = test: Ratio of ED50 for po dosed albino Wistar rat assessed as induction of catalepsy to ED50 for methamphetamine-induced stereotyped behavior in po dosed albino Wistar rat
Rattus norvegicus [9] = test: Ratio of benperidol ED50 to compound ED50 for apomorphine-induced stereotyped behavior in po dosed albino Wistar rat; type: functional
Rattus norvegicus [10] = test: Ratio of haloperidol ED50 to compound ED50 for methamphetamine-induced stereotyped behavior in po dosed albino Wistar rat; type: functional
Rattus norvegicus [11] = test: Ratio of benperidol ED50 to compound ED50 for methamphetamine-induced stereotyped behavior in po dosed albino Wistar rat; type: functional
Rattus norvegicus [12] = test: Ratio of haloperidol ED50 to compound ED50 for apomorphine-induced stereotyped behavior in po dosed albino Wistar rat; type: functional

SMILES	ED50 (Mus musculus [1]) [mg/kg]	ED50 (Mus musculus [2]) [mg/kg]	also measured
O=C(CCCN1CCC(n2cnc3ccccc32)CC1)c1ccc(F)cc1	4.7	> 3	–
Cc1nc2ccccc2n1C1CCN(CCCC(=O)c2ccc(F)cc2)CC1	0.85	0.81	–
CCc1nc2ccccc2n1C1CCN(CCCC(=O)c2ccc(F)cc2)CC1.Cl	9.1	> 3	–
CCCCc1nc2ccccc2n1C1CCN(CCCC(=O)c2ccc(F)cc2)CC1.Cl	14	> 3	–
Cl.O=C(CCCN1CCC(n2c(-c3ccccc3)nc3ccccc32)CC1)c1ccc(F)cc1	18	> 3	–
O=C(CCCN1CCC(n2c(C(F)(F)F)nc3ccccc32)CC1)c1ccc(F)cc1	> 40	–	–
CSc1nc2ccccc2n1C1CCN(CCCC(=O)c2ccc(F)cc2)CC1	6.2	0.68	ED50 (Rattus norvegicus [3]): 0.2 mg/kg; ED50 (Rattus norvegicus [4]): 1.1 mg/kg; LD50 at 168 h [5]: 930 mg/kg; Ratio ED50 (Rattus norvegicus [6]): 2.7; ED50 (Rattus norvegicus [7]): 0.41 mg/kg; Ratio ED50 (Rattus norvegicus [8]): 5.5
CCSc1nc2ccccc2n1C1CCN(CCCC(=O)c2ccc(F)cc2)CC1.Cl	5	> 3	–
Br.CC(C)Sc1nc2ccccc2n1C1CCN(CCCC(=O)c2ccc(F)cc2)CC1	4.4	1.6	–
O=C(CCCN1CCC(n2c(SCCO)nc3ccccc32)CC1)c1ccc(F)cc1	6.9	> 3	–
O=C(CCCSc1nc2ccccc2n1C1CCN(CCCC(=O)c2ccc(F)cc2)CC1)c1ccc(F)cc1	14	> 3	–
O=C(CCCN1CCC(n2c(SCC(=O)c3ccc(Cl)cc3)nc3ccccc32)CC1)c1ccc(F)cc1	5	1.6	–
O=C(CCCN1CCC(n2c(SCc3ccccc3)nc3ccccc32)CC1)c1ccc(F)cc1	1.3	0.76	–
C#CCSc1nc2ccccc2n1C1CCN(CCCC(=O)c2ccc(F)cc2)CC1.Cl	1.2	0.74	–
Br.CCOC(=O)CSc1nc2ccccc2n1C1CCN(CCCC(=O)c2ccc(F)cc2)CC1	> 40	–	–
O=C(CCCN1CCC(n2c(Sc3ccccc3[N+](=O)[O-])nc3ccccc32)CC1)c1ccc(F)cc1	11	–	–

SMILES	ED50 (Mus musculus [1]) [mg/kg]	ED50 (Mus musculus [2]) [mg/kg]	also measured
CCOC(=O)Sc1nc2ccccc2n1C1CCN(CCCC(=O)c2ccc(F)cc2)CC1	0.36	0.65	–
CCCCCCC(=O)Sc1nc2ccccc2n1C1CCN(CCCC(=O)c2ccc(F)cc2)CC1.Cl	1	1.1	–
Cl.O=C(CCCN1CCC(n2c(SC(=O)c3ccc(Cl)cc3)nc3ccccc32)CC1)c1ccc(F)cc1	0.96	0.83	–
Cl.Cn1c(=S)n(C2CCN(CCCC(=O)c3ccc(F)cc3)CC2)c2ccccc21	0.54	–	–
Br.C=CCn1c(=S)n(C2CCN(CCCC(=O)c3ccc(F)cc3)CC2)c2ccccc21	0.87	–	–
O=C(CCCN1CCC(n2nnc3ccccc32)CC1)c1ccc(F)cc1	33	–	–
Cc1nc2ccccc2n(C2CCN(CCCC(=O)c3ccc(F)cc3)CC2)c1=O	14.1	> 3	–
CC(=O)O.O=C(CCCN1CCC(n2c(=O)c(O)nc3ccccc32)CC1)c1ccc(F)cc1	> 40	> 3	–
Cc1nc2ccccc2n1C1CCN(CCCC(c2ccc(F)cc2)c2ccc(F)cc2)CC1	40	> 3	–
Fc1ccc(C(CCCN2CCC(n3c(=S)[nH]c4ccccc43)CC2)c2ccc(F)cc2)cc1	20	1	–
CSc1nc2ccccc2n1C1CCN(CCCC(c2ccc(F)cc2)c2ccc(F)cc2)CC1	13	2.4	–
OCCSc1nc2ccccc2n1C1CCN(CCCC(c2ccc(F)cc2)c2ccc(F)cc2)CC1	40	> 3	–
O=C(CCCN1CCC(n2c(O)nc3ccccc32)CC1)c1ccc(F)cc1 [BENPERIDOL]	0.56	0.63	ED50 (Rattus norvegicus [3]): 0.44 mg/kg; ED50 (Rattus norvegicus [4]): 0.92 mg/kg; Ratio ED50 (Rattus norvegicus [6]): 1.5; ED50 (Rattus norvegicus [7]): 0.62 mg/kg; Ratio ED50 (Rattus norvegicus [8]): 2.1
O=C(CCCN1CCC(O)(c2ccc(Cl)cc2)CC1)c1ccc(F)cc1 [HALOPERIDOL]	0.8	0.32	ED50 (Rattus norvegicus [3]): 0.5 mg/kg; ED50 (Rattus norvegicus [4]): 0.88 mg/kg; LD50 at 168 h [5]: 240 mg/kg; Ratio ED50 (Rattus norvegicus [6]): 1; ED50 (Rattus norvegicus [7]): 0.85 mg/kg; Ratio ED50 (Rattus norvegicus [8]): 1.8
O=c1[nH]c2ccccc2n1C1CCN(CCCC(c2ccc(F)cc2)c2ccc(F)cc2)CC1 [PIMOZIDE]	7.4	1.1	–
O=C(CCCN1CCC(n2c(=S)[nH]c3ccccc32)CC1)c1ccc(F)cc1 [TIMIPERONE]	0.6	0.55	ED50 (Rattus norvegicus [3]): 0.054 mg/kg; ED50 (Rattus norvegicus [4]): 0.33 mg/kg; Ratio ED50 (Rattus norvegicus [9]): 6.5; LD50 at 168 h [5]: 500 mg/kg; Ratio ED50 (Rattus norvegicus [6]): 4.5; Ratio ED50 (Rattus norvegicus [10]): 9.3; Ratio ED50 (Rattus norvegicus [11]): 8.1; ED50 (Rattus norvegicus [7]): 0.095 mg/kg; Ratio ED50 (Rattus norvegicus [8]): 6.1; Ratio ED50 (Rattus norvegicus [12]): 8.9
